{
  "source": "the supplement of paper PMC10307832",
  "test_in_all_cases": "relative viability (nuclei count vs DMSO), 5 days (fraction); higher = more cells survive",
  "key": {"[1]": {"test_system": "NCI-H2087", "how_it_was_run": "(§1)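 Relative viability is defined as nuclei in treated wells over nuclei in vehicle wells. Duplicate plates were run and medians reported. Lung cancer cell lines in 1536-well plates were dosed by pin tool one day after seeding, with one drug or with a fixed anchor-drug dose plus five library-drug doses (not always all listed) in √10 steps, and nuclei were counted after 5 days.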"}, "[2]": {"test_system": "LOU-NH91", "how_it_was_run": "as §1"}, "[3]": {"test_system": "NCI-H727", "how_it_was_run": "as §1"}, "[4]": {"test_system": "LCLC-97TM1", "how_it_was_run": "as §1"}, "[5]": {"test_system": "NCI-H1650", "how_it_was_run": "as §1"}, "[6]": {"test_system": "EKVX", "how_it_was_run": "as §1"}, "[7]": {"test_system": "LK-2", "how_it_was_run": "as §1"}, "[8]": {"test_system": "NCI-H1563", "how_it_was_run": "as §1"}, "[9]": {"test_system": "HCC-827", "how_it_was_run": "as §1"}, "[10]": {"test_system": "LU99A", "how_it_was_run": "as §1"}, "[11]": {"test_system": "HCC-78", "how_it_was_run": "as §1"}, "[12]": {"test_system": "EPLC-272H", "how_it_was_run": "as §1"}, "[13]": {"test_system": "BEN", "how_it_was_run": "as §1"}, "[14]": {"test_system": "SW 900", "how_it_was_run": "as §1"}, "[15]": {"test_system": "NCI-H358", "how_it_was_run": "as §1"}, "[16]": {"test_system": "SW 1573", "how_it_was_run": "as §1"}, "[17]": {"test_system": "EMC-BAC-2", "how_it_was_run": "as §1"}, "[18]": {"test_system": "NCI-H2126", "how_it_was_run": "as §1"}, "[19]": {"test_system": "COR-L 105", "how_it_was_run": "as §1"}, "[20]": {"test_system": "SK-MES-1", "how_it_was_run": "as §1"}},
  "data": [
    {"smiles": "COCC1(CO)C(=O)C2CCN1CC2", "note": "(stereo not drawn) [PRIMA-1MET] + COc1cc2c(Oc3ccc(NC(=O)C4(C(=O)Nc5ccc(F)cc5)CC4)cc3F)ccnc2cc1OCCCN1CCOCC1 [Foretinib] (partner 0.25 µM)", "values": [
      {"measurement": "relative viability", "setting": "[1]; first compound 0.2 µM", "result": 1.29},
      {"measurement": "relative viability", "setting": "[1]; first compound 0.6325 µM", "result": 1.17},
      {"measurement": "relative viability", "setting": "[1]; first compound 2 µM", "result": 0.932},
      {"measurement": "relative viability", "setting": "[1]; first compound 6.325 µM", "result": 1.02},
      {"measurement": "relative viability", "setting": "[1]; first compound 20 µM", "result": 0.632},
      {"measurement": "relative viability", "setting": "[2]; first compound 0.2 µM", "result": 1.04},
      {"measurement": "relative viability", "setting": "[2]; first compound 0.6325 µM", "result": 0.992},
      {"measurement": "relative viability", "setting": "[2]; first compound 2 µM", "result": 0.861},
      {"measurement": "relative viability", "setting": "[2]; first compound 6.325 µM", "result": 1},
      {"measurement": "relative viability", "setting": "[2]; first compound 20 µM", "result": 0.8},
      {"measurement": "relative viability", "setting": "[3]; first compound 0.2 µM", "result": 0.636},
      {"measurement": "relative viability", "setting": "[3]; first compound 0.6325 µM", "result": 0.674},
      {"measurement": "relative viability", "setting": "[3]; first compound 2 µM", "result": 0.782},
      {"measurement": "relative viability", "setting": "[3]; first compound 6.325 µM", "result": 1.03},
      {"measurement": "relative viability", "setting": "[3]; first compound 20 µM", "result": 0.44},
      {"measurement": "relative viability", "setting": "[4]; first compound 0.2 µM", "result": 0.915},
      {"measurement": "relative viability", "setting": "[4]; first compound 0.6325 µM", "result": 0.909},
      {"measurement": "relative viability", "setting": "[4]; first compound 2 µM", "result": 0.926},
      {"measurement": "relative viability", "setting": "[4]; first compound 6.325 µM", "result": 0.945},
      {"measurement": "relative viability", "setting": "[4]; first compound 20 µM", "result": 0.826},
      {"measurement": "relative viability", "setting": "[5]; first compound 0.2 µM", "result": 1.45},
      {"measurement": "relative viability", "setting": "[5]; first compound 0.6325 µM", "result": 1.03},
      {"measurement": "relative viability", "setting": "[5]; first compound 2 µM", "result": 1.1},
      {"measurement": "relative viability", "setting": "[5]; first compound 6.325 µM", "result": 0.924},
      {"measurement": "relative viability", "setting": "[5]; first compound 20 µM", "result": 0.364},
      {"measurement": "relative viability", "setting": "[6]; first compound 0.2 µM", "result": 0.988},
      {"measurement": "relative viability", "setting": "[6]; first compound 0.6325 µM", "result": 0.518},
      {"measurement": "relative viability", "setting": "[6]; first compound 6.325 µM", "result": 1.1},
      {"measurement": "relative viability", "setting": "[6]; first compound 20 µM", "result": 0.843},
      {"measurement": "relative viability", "setting": "[7]; first compound 0.2 µM", "result": 1.4},
      {"measurement": "relative viability", "setting": "[7]; first compound 0.6325 µM", "result": 1.16},
      {"measurement": "relative viability", "setting": "[7]; first compound 2 µM", "result": 0.567},
      {"measurement": "relative viability", "setting": "[7]; first compound 6.325 µM", "result": 0.752},
      {"measurement": "relative viability", "setting": "[7]; first compound 20 µM", "result": 0.147},
      {"measurement": "relative viability", "setting": "[8]; first compound 0.2 µM", "result": 1.05},
      {"measurement": "relative viability", "setting": "[8]; first compound 0.6325 µM", "result": 1},
      {"measurement": "relative viability", "setting": "[8]; first compound 2 µM", "result": 0.838},
      {"measurement": "relative viability", "setting": "[8]; first compound 6.325 µM", "result": 0.911},
      {"measurement": "relative viability", "setting": "[8]; first compound 20 µM", "result": 0.288},
      {"measurement": "relative viability", "setting": "[9]; first compound 0.2 µM", "result": 1.09},
      {"measurement": "relative viability", "setting": "[9]; first compound 0.6325 µM", "result": 0.976},
      {"measurement": "relative viability", "setting": "[9]; first compound 2 µM", "result": 0.749},
      {"measurement": "relative viability", "setting": "[9]; first compound 6.325 µM", "result": 1.01},
      {"measurement": "relative viability", "setting": "[9]; first compound 20 µM", "result": 0.929},
      {"measurement": "relative viability", "setting": "[10]; first compound 0.2 µM", "result": 0.84},
      {"measurement": "relative viability", "setting": "[10]; first compound 0.6325 µM", "result": 0.806},
      {"measurement": "relative viability", "setting": "[10]; first compound 2 µM", "result": 0.813},
      {"measurement": "relative viability", "setting": "[10]; first compound 6.325 µM", "result": 0.913},
      {"measurement": "relative viability", "setting": "[10]; first compound 20 µM", "result": 0.394},
      {"measurement": "relative viability", "setting": "[11]; first compound 0.2 µM", "result": 0.671},
      {"measurement": "relative viability", "setting": "[11]; first compound 0.6325 µM", "result": 0.477},
      {"measurement": "relative viability", "setting": "[11]; first compound 6.325 µM", "result": 0.54},
      {"measurement": "relative viability", "setting": "[11]; first compound 20 µM", "result": 0.441},
      {"measurement": "relative viability", "setting": "[12]; first compound 2 µM", "result": 0.603},
      {"measurement": "relative viability", "setting": "[12]; first compound 6.325 µM", "result": 0.896},
      {"measurement": "relative viability", "setting": "[12]; first compound 20 µM", "result": 0.105},
      {"measurement": "relative viability", "setting": "[13]; first compound 0.2 µM", "result": 0.653},
      {"measurement": "relative viability", "setting": "[13]; first compound 0.6325 µM", "result": 0.586},
      {"measurement": "relative viability", "setting": "[13]; first compound 6.325 µM", "result": 0.741},
      {"measurement": "relative viability", "setting": "[13]; first compound 20 µM", "result": 0.954},
      {"measurement": "relative viability", "setting": "[14]; first compound 0.2 µM", "result": 0.928},
      {"measurement": "relative viability", "setting": "[14]; first compound 0.6325 µM", "result": 1.13},
      {"measurement": "relative viability", "setting": "[14]; first compound 2 µM", "result": 0.699},
      {"measurement": "relative viability", "setting": "[14]; first compound 6.325 µM", "result": 0.451},
      {"measurement": "relative viability", "setting": "[14]; first compound 20 µM", "result": 0.051},
      {"measurement": "relative viability", "setting": "[15]; first compound 0.2 µM", "result": 0.881},
      {"measurement": "relative viability", "setting": "[15]; first compound 2 µM", "result": 0.592},
      {"measurement": "relative viability", "setting": "[15]; first compound 6.325 µM", "result": 0.634},
      {"measurement": "relative viability", "setting": "[15]; first compound 20 µM", "result": 0.0429},
      {"measurement": "relative viability", "setting": "[16]; first compound 0.2 µM", "result": 1.36},
      {"measurement": "relative viability", "setting": "[16]; first compound 0.6325 µM", "result": 0.404},
      {"measurement": "relative viability", "setting": "[16]; first compound 2 µM", "result": 0.777},
      {"measurement": "relative viability", "setting": "[16]; first compound 6.325 µM", "result": 0.485},
      {"measurement": "relative viability", "setting": "[16]; first compound 20 µM", "result": 0.0333},
      {"measurement": "relative viability", "setting": "[17]; first compound 0.2 µM", "result": 1.17},
      {"measurement": "relative viability", "setting": "[17]; first compound 0.6325 µM", "result": 1.01},
      {"measurement": "relative viability", "setting": "[17]; first compound 6.325 µM", "result": 1.04},
      {"measurement": "relative viability", "setting": "[17]; first compound 20 µM", "result": 1.03},
      {"measurement": "relative viability", "setting": "[18]; first compound 0.2 µM", "result": 1.3},
      {"measurement": "relative viability", "setting": "[18]; first compound 0.6325 µM", "result": 0.993},
      {"measurement": "relative viability", "setting": "[18]; first compound 2 µM", "result": 1.22},
      {"measurement": "relative viability", "setting": "[18]; first compound 6.325 µM", "result": 1.23},
      {"measurement": "relative viability", "setting": "[18]; first compound 20 µM", "result": 1.13},
      {"measurement": "relative viability", "setting": "[19]; first compound 0.2 µM", "result": 1.48},
      {"measurement": "relative viability", "setting": "[19]; first compound 0.6325 µM", "result": 1.02},
      {"measurement": "relative viability", "setting": "[19]; first compound 2 µM", "result": 1.17},
      {"measurement": "relative viability", "setting": "[19]; first compound 6.325 µM", "result": 1.2},
      {"measurement": "relative viability", "setting": "[19]; first compound 20 µM", "result": 0.551},
      {"measurement": "relative viability", "setting": "[20]; first compound 0.2 µM", "result": 1.11},
      {"measurement": "relative viability", "setting": "[20]; first compound 0.6325 µM", "result": 0.941},
      {"measurement": "relative viability", "setting": "[20]; first compound 2 µM", "result": 0.795},
      {"measurement": "relative viability", "setting": "[20]; first compound 6.325 µM", "result": 1.15},
      {"measurement": "relative viability", "setting": "[20]; first compound 20 µM", "result": 0.955}
    ]}
  ]
}
